Data from patent US20080131511A1, “Pharmaceutical Composition for Treatment of Tear and Salivary Fluid Drying” (Astellas Pharma, Inc., priority 2004, published 2008).

Assays:
[1] = test system: ornithine decarboxylase (ODC) activity of extra-orbital lacrimal gland; experiment: Ornithine decarboxylase activity of extra-orbital lacrimal gland, subcutaneous continuous administration; assay type: in vivo, mouse (male Balb/c); conditions: mice; for Glandular cell growth Lacrimal gland: ODC activity 10 hours after implantation
Protocol: (§1) Male Balb/c mice were used in the test.
(§2) The compound A was dissolved in physiological saline to a concentration of 0.625, 1.25, 2.5, 5.0, 10 or 20 mg/200 μl, and filled each pump (Alzet mini-osmotic pump 2001D, 8 μl/h, 1 day; DURECT Corporation) with about 200 μl portions It means, that is, each pump releases at a rate of 0.025, 0.05, 0.1, 0.2, 0.4 or 0.8 mg compound A/h, respectively. About 5 mm of dorsal epidermis of a mouse anesthetized with diethyl ether was incised, the osmotic pump already filled with the compound A was subcutaneously implanted, and then the skin was stitched. Secreted amounts of salivary and tear fluid and sweating were periodically measured from just before the implantation of pump until 32 hours after the administration. The ornithine decarboxylase activity was measured 10 hours after the implantation.
(§3) Pilocarpine was dissolved in physiological saline to a concentration of 0.039, 0.078, 0.16 or 0.31 mg/200 μl, or cevimeline to a concentration of 0.16, 0.31, 0.63 or 1.3 mg/200 μl, and filled the osmotic pump (Alzet mini-osmotic pump 2001 D, 8 μl/h, 1 day; DURECT Corporation) with about 200 μl portions. It means, that is, each pump releases at a rate of 0.00156, 0.00312, 0.0064 or 0.0124 mg/h (pilocarpine) or 0.0064, 0.0124, 0.0252 or 0.05 mg/h (cevimeline). About 5 mm of dorsal epidermis of a mouse anesthetized with diethyl ether was incised, the osmotic pump already filled with pilocarpine or cevimeline was subcutaneously implanted, and then the skin was stitched. Secreted amounts of salivary and tear fluid and sweating were periodically measured from just before the implantation of pump until 32 hours after the administration. The ornithine decarboxylase activity was measured 10 hours after the implantation.
(§4) Thus, it can be easily analogized that the ODC activity becomes a useful index of cell growth and function of the exocrine gland. Accordingly, the ability of each drug to activate glandular tissue was evaluated by measuring ODC activity of parotid salivary gland and extra-orbital lacrimal gland.
(§5) The amount of ^14CO2 formed from L-^14C-ornithine was used as the index of ODC activity.
(§6) A mouse anesthetized with diethyl ether was sacrificed by bleeding, and left and right parotid salivary glands and extra-orbital lacrimal glands were isolated. After removing the attached connective tissue and fat, the isolated glandular tissues homogenized in 1.5 ml of a homogenate buffer (25 mM Tris-HCl buffer (pH 7.4) containing 0.1 mM ethylenediaminetetraacetic acid, 0.4 mM pyridoxal phosphate, 5 mM dithiothreitol and 0.1% Brij 35®) using a Potter type homogenizer and then centrifuged at 4° C., 15,000 g for 30 minutes, and the supernatant was used as the enzyme fraction. Reaction of the enzyme and substrate was carried out by adding 100 μl of a substrate solution (the homogenate buffer containing 300 μM DL-ornithine and 5 μCi L-^14C-ornithine) to 900 μl of the enzyme liquid whose protein concentration had been adjusted to 2.5 mg/ml and incubating at 37° C. for 1 hour in a sealed tube, and the reaction was terminated by the addition of 100 μl of 2 M H2SO4. The ^14CO2 generated by the reaction was captured by 150 μl of 1 N NaOH soaked in a glass filter. Radioactivity of the ^14CO2 captured on the glass filter was detected using a liquid scintillation counter. The enzyme activity (pmol ^14CO2/mg protein/hour) was calculated from the measured results.
(§7) All of the test results were expressed as fold increases of the reactions of the drug-administered group versus those of the vehicle-administered group, and comparison between the drug-administered groups and the vehicle-administered group was carried out using Dunnett's t-test. P<0.05 was considered significant. Results

[2] = test system: ornithine decarboxylase (ODC) activity of parotid salivary gland; experiment: Ornithine decarboxylase activity of parotid salivary gland, subcutaneous continuous administration; assay type: in vivo, mouse (male Balb/c); conditions: mice; for Glandular cell growth Salivary gland: ODC activity 10 hours after implantation
Protocol: as §1, §2, §3, §4, §5, §6, §7

[3] = Calculation of plasma concentration under stationary state (Css) and PT ratio from phase I data; parameters: species or system human; conditions: for concentration in plasma under stationary state (Css): calculated from AUC and T1/2 at 20 mg; for PT ratio (Cmax/Cmin): calculated
From the text: As described in the above, in order to increase secretion of salivary and tear fluid and to obtain effect of salivary gland and lacrimal gland cell growth, more sufficiently than usual, it is desirable to control drug release per unit hour of the compound A from a sustained release pharmaceutical preparation, and essentially, it is ideal to keep its effective concentration in human plasma for a predetermined period of time. The effective concentration of compound A in plasma under stationary state can be calculated using the AUC and disappearing half life obtained in the human clinical test, the aforementioned drug release per unit hour, distribution volume, disappearing rate constant and the like pharmacokinetic parameters.
An example of the method for calculating its concentration in plasma under stationary state (Css) is shown in the following.
They were 86.9, 172, 1380 and 2758 ng/ml. Though there is a possibility that it varies depending on the influences of specific difference, individual difference and the like various factors, when an example is cited, effective concentration of the compound A in plasma is 35 ng/ml in a lower case, based on the aforementioned calculation result and from the aforementioned valued calculated from Tables 7 and 8. This is preferably 50 ng/ml, more preferably 87 ng/ml, and further more preferably 170 ng/ml.
In addition, it is desirable to control a PT ratio (Cmax/Cmin) which is the ratio of maximum concentration of the compound A in plasma (Cmax) to its minimum concentration in plasma (Cmin). It is possible to calculate the PT ratio from Tmax and T1/2, and the calculation is carried out in the following manner.
This value means that the hour of T1/2 passed 5.5 times after Tmax, and (½)^5.5=1/45. Thus, the PT ratio becomes 45.
Also, when supposed as twice a day administration, (12−2)/4=2.5. In the same manner as in the above, (½)^2.5=1/5.7. Thus, the PT ratio is 5.7. In addition, when the same calculation is carried out based on the minimum value 3.4 h of T1/2 (showing the effect without perspiration),

[4] = test system: healthy male adult volunteers; experiment: Phase I study, single oral administration: sweating; assay type: in vivo, human; conditions: for Sweating (number of subjects with the symptom): healthy male adult volunteers, 6 subjects
Protocol: The compound A was orally administered once to healthy male adult volunteers, and saliva secretion action and pharmacokinetics were evaluated.
Drug administration to the volunteers was carried out by a blind method.
In order to observe the volunteers carefully, saliva quantity, sweating and pharmacokinetics (concentrations of unchanged compound A in plasma and urine) were periodically measured.

[5] = s.c. osmotic pump 0.16 mg (0.0064 mg/h)
[6] = s.c. osmotic pump 0.31 mg (0.0124 mg/h)
[7] = s.c. osmotic pump 0.63 mg (0.0252 mg/h)
[8] = s.c. osmotic pump 1.25 (0.05 mg/h)
[9] = s.c. osmotic pump 1.25 mg (0.05 mg/h)
[10] = s.c. osmotic pump 2.5 mg (0.1 mg/h)
[11] = s.c. osmotic pump 5 mg (0.2 mg/h)
[12] = s.c. osmotic pump 10 mg (0.4 mg/h)

## CC[C@@H]1C(=O)OC[C@@H]1Cc1cncn1C [pilocarpine]
[1]; s.c. continuous administration
  dose at which ODC activity increasing action of lacrimal gland cell was observed: 0.31 mg
[1]; [5]
  Glandular cell growth Lacrimal gland: 1.4 ± 0.33 fold increase vs. vehicle group
[1]; [6]
  Glandular cell growth Lacrimal gland: 2.0 ± 0.28 fold increase vs. vehicle group
[2]; [5]
  Glandular cell growth Salivary gland: 0.42 ± 0.06 fold increase vs. vehicle group
[2]; [6]
  Glandular cell growth Salivary gland: 1.1 ± 0.20 fold increase vs. vehicle group

## CC1OC2(CS1)CN1CCC2CC1 (stereo not shown) [cevimeline]
[1]; [7]
  Glandular cell growth Lacrimal gland: 1.4 ± 0.28 fold increase vs. the solvent group
[1]; [8]
  Glandular cell growth Lacrimal gland: 1.3 ± 0.70 fold increase vs. the solvent group
[2]; s.c. continuous administration
  glandular cell ODC activity acceleration action: not confirmed even at 1.25 mg
[2]; [7]
  Glandular cell growth Salivary gland: 0.87 ± 0.05 fold increase vs. the solvent group
[2]; [8]
  Glandular cell growth Salivary gland: 0.45 ± 0.12 fold increase vs. the solvent group

## C=C1CC2(CCN(C)CC2)O[C@H]1C [compound A, (−)-(S)-2,8-dimethyl-3-methylene-1-oxa-8-azaspiro[4.5]decane]
[3]; release rate R=4.2 mg/h
  concentration in plasma under stationary state (Css): 86.9 ng/mL
[3]; release rate R=8.3 mg/h
  concentration in plasma under stationary state (Css): 172 ng/mL
[3]; release rate R=66.7 mg/h
  concentration in plasma under stationary state (Css): 1380 ng/mL
[3]; release rate R=133.3 mg/h
  concentration in plasma under stationary state (Css): 2758 ng/mL
[3]; once a day administration, T1/2 3.4 h
  PT ratio (Cmax/Cmin): 90.5
[3]; once a day administration, Tmax 2, T1/2 4
  PT ratio (Cmax/Cmin): 45
[3]; twice a day administration, T1/2 3.4 h
  PT ratio (Cmax/Cmin): 7.5
[3]; twice a day administration, Tmax 2, T1/2 4
  PT ratio (Cmax/Cmin): 5.7
[4]; single oral 5 mg
  Sweating (number of subjects with the symptom): 0
[4]; single oral 10 mg
  Sweating (number of subjects with the symptom): 1
[4]; single oral 20 mg
  Sweating (number of subjects with the symptom): 0
[4]; single oral 40 mg
  Sweating (number of subjects with the symptom): 0
[4]; single oral 60 mg
  Sweating (number of subjects with the symptom): 5
[4]; human clinical test
  dose at which a side effect was found: 60 mg/individual
  dose at which a side effect was not found: 40 mg/individual
[4]; phase I study, oral administration
  maximum dose (single administration) by which sweating was not observed but the beneficial effect was observed: 40 mg
[1]; [9]
  Glandular cell growth Lacrimal gland: 3.3 ± 1.2 fold increase vs. the vehicle group
[1]; [10]
  Glandular cell growth Lacrimal gland: 6.7 ± 0.90 fold increase vs. the vehicle group
[1]; [11]
  Glandular cell growth Lacrimal gland: 9.2 ± 1.4 fold increase vs. the vehicle group
[1]; [12]
  Glandular cell growth Lacrimal gland: 7.1 ± 1.2 fold increase vs. the vehicle group
[2]; [9]
  Glandular cell growth Salivary gland: 1.56 ± 0.33 fold increase vs. the vehicle group
[2]; [10]
  Glandular cell growth Salivary gland: 6.9 ± 2.3 fold increase vs. the vehicle group
[2]; [11]
  Glandular cell growth Salivary gland: 9.6 ± 1.8 fold increase vs. the vehicle group
[2]; [12]
  Glandular cell growth Salivary gland: 9.8 ± 2.6 fold increase vs. the vehicle group
